Literature values in patent publication US20090246262A1, “EASILY APPLIED FIELD DRESSING FOR WOUNDS” (Valor Medical, Inc., priority 2008, published 2009).

What was measured:
[1] = in vivo
[2] = upon contact with moist tissues

Row | Compound | histotoxicity [1] | time to polymerize (remains as a monomer) [2] [s]
1 | C=C(C#N)C(=O)OC [Eastman 910] | histotoxic | 
2 | C=C(C#N)C(=O)OCC [ethyl] | histotoxic | 
3 | C=C(C#N)C(=O)OC [methyl homolog, methyl cyanoacrylate] | histoxicity severely limited its clinical usefulness | 30 to 55
